Laboratory results reported in patent US10206394B2, “Herbicidal compounds” (Syngenta Participations AG, priority 2014, dated 2019).
Like-named read-outs stand apart in the source and are kept apart here.

Experiments:
Assay in all cases: Glasshouse assay for herbicidal activity (pre- and post-emergence), percentage phytotoxicity
Type in all cases: in vivo
Avena fatua (AVEFA) = settings: Avena fatua, rate 250 g/ha
Procedure, shortened: (§1)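 Visually rated damage, 0–100%. PRE spray 1 d after sowing, scored 20 DAA; POST spray ~12 d, scored 15 DAA. Glasshouse at 65% humidity, 16 h day.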

Lolium perenne (LOLPE) = settings: Lolium perenne, rate 250 g/ha
Procedure, shortened: as §1

[1] = tested on: Echinochloa crus-galli (ECHCG); settings: Echinochloa crus-galli, rate 250 g/ha
Procedure, shortened: as §1

[2] = tested on: Alopecurus myosuroides (ALOMY); settings: Alopecurus myosuroides, rate 250 g/ha
Procedure, shortened: as §1

[3] = post-emergence, 360 h, POST-emergence, visual score 15 DAA (100%=total damage, 0%=no damage), read-out: Post-emergence herbicidal activity (percentage phytotoxicity) AVEFA POST
[4] = pre-emergence, 480 h, PRE-emergence, visual score 20 DAA (100%=total damage, 0%=no damage), read-out: Pre-emergence herbicidal activity (percentage phytotoxicity) AVEFA PRE
[5] = post-emergence, 360 h, POST-emergence, visual score 15 DAA (100%=total damage, 0%=no damage), read-out: Post-emergence herbicidal activity (percentage phytotoxicity) LOLPE POST
[6] = pre-emergence, 480 h, PRE-emergence, visual score 20 DAA (100%=total damage, 0%=no damage), read-out: Pre-emergence herbicidal activity (percentage phytotoxicity) LOLPE PRE
[7] = post-emergence, 360 h, POST-emergence, visual score 15 DAA (100%=total damage, 0%=no damage), read-out: Post-emergence herbicidal activity (percentage phytotoxicity) ECHCG POST
[8] = pre-emergence, 480 h, PRE-emergence, visual score 20 DAA (100%=total damage, 0%=no damage), read-out: Pre-emergence herbicidal activity (percentage phytotoxicity) ECHCG PRE
[9] = post-emergence, 360 h, POST-emergence, visual score 15 DAA (100%=total damage, 0%=no damage), read-out: Post-emergence herbicidal activity (percentage phytotoxicity) ALOMY POST
[10] = pre-emergence, 480 h, PRE-emergence, visual score 20 DAA (100%=total damage, 0%=no damage), read-out: Pre-emergence herbicidal activity (percentage phytotoxicity) ALOMY PRE

SMILES	pest or weed control at 250 g/ha (Avena fatua (AVEFA); [3]) [%]	pest or weed control at 250 g/ha (Avena fatua (AVEFA); [4]) [%]	pest or weed control at 250 g/ha (Lolium perenne (LOLPE); [5]) [%]	pest or weed control at 250 g/ha (Lolium perenne (LOLPE); [6]) [%]	pest or weed control at 250 g/ha [1, 7] [%]	pest or weed control at 250 g/ha [1, 8] [%]	pest or weed control at 250 g/ha [2, 9] [%]	pest or weed control at 250 g/ha [2, 10] [%]
Cc1cc(-c2ncc(F)cn2)cc(C)c1C1C(=O)CC(CC(=O)N2CCOCC2)C1=O (centres unmarked) [Compound B276]	90	80	100	90	100	100	90	100
CCNC(=O)CC1CC(=O)C(c2c(C)cc(-c3ncc(F)cn3)cc2C)C1=O (centres unmarked) [Compound B277]	100	100	100	100	100	100	100	100
C=C(C)CNC(=O)CC1CC(=O)C(c2c(C)cc(-c3ncc(F)cn3)cc2C)C1=O (centres unmarked) [Compound B278]	100	100	90	100	100	100	100	100
Cc1cc(-c2ncc(F)cn2)cc(C)c1C1C(=O)CC(CC(=O)N(C)C)C1=O (centres unmarked) [Compound B279]	100	100	100	100	100	100	100	100
CNC(=O)CC1CC(=O)C(c2c(C)cc(-c3ncc(F)cn3)cc2C)C1=O (centres unmarked) [Compound B280]	100	100	100	100	100	100	100	100
COCCN(CCOC)C(=O)CC1CC(=O)C(c2c(C)cc(-c3ncc(F)cn3)cc2C)C1=O (centres unmarked) [Compound B281]	100	80	90	80	100	100	100	80
CCNC(=O)CC1CC(=O)C(c2c(C)cc(-c3ncc(Br)cn3)cc2C)C1=O (centres unmarked) [Compound B282]	100	100	100	100	100	100	100	100
C=C(C)CNC(=O)CC1CC(=O)C(c2c(C)cc(-c3ncc(Br)cn3)cc2C)C1=O (centres unmarked) [Compound B283]	100	90	100	100	100	100	100	100
Cc1cc(-c2ncc(C#N)cn2)cc(C)c1C1C(=O)CC(CC(=O)NCc2cccc(Cl)c2)C1=O (centres unmarked) [Compound B284]	100	70	100	90	100	100	100	100
Cc1cc(-c2ncc(Br)cn2)cc(C)c1C1C(=O)CC(CC(=O)N2CCOCC2)C1=O (centres unmarked) [Compound B285]	100	90	100	100	100	100	100	90
